Test results: PMC12736008, “New Dimethylpyridine-3-Carboxamide Derivatives as MMP-13 Inhibitors with Anticancer Activity” (Molecules, 2025)

Experiments:
A375 (melanoma) cells = test: MTT assay, A375; assay type: cell-based, human; conditions: for reduction in cancer cell viability / anticancer potential (A375): MTT, 24 h, 0.004 mM to 0.5 mM
Excerpt: As mentioned earlier, MMP-13 is overexpressed and functionally significant in various cancers, including melanoma and colorectal carcinoma. For instance, high MMP-13 levels have been correlated with metastasis and poor survival in melanoma patients. In colorectal cancer, elevated MMP-13 activity has been observed in tumors compared to normal mucosa, and its expression is associated with a worse prognosis. Based on computational studies, four out of the eleven designed compounds showing the most promising predicted activity against MMP-13 were selected for biological evaluation. For the MTT assay, NHDF cells were used as the healthy reference cell line, while A375 (melanoma) and HT-29 (colorectal adenocarcinoma cancer) cell lines were chosen as cancer models.
Experiments were conducted using two cancer cell lines and, as a control, a normal human dermal fibroblasts (NHDF; ATCC PCS-201-012). The A375 cell line (human melanoma, ATCC CRL-1619), and HT-29 cell line (human colorectal adenocarcinoma, ATCC HTB-38) were cultured in DMEM (Dulbecco’s Modified Eagle Medium, Institute of Immunology and Experimental Therapy (IITD), Wrocław, Poland) supplemented with 1% antibiotics (10 U/mL penicillin and 10 µg/mL streptomycin, Sigma-Aldrich, St Louis, MO, USA), 1% glutamine (Sigma-Aldrich, St Louis, MO, USA) and 10% fetal bovine serum (FBS, Gibco, Grand Island, NY, USA). For NHDF cultures, α-MEM (α-Minimum Essentials Medium, Institute of Immunology and Experimental Therapy (IITD), Poland) was used with the same supplement combination as for the cancer cell lines. All cells were maintained in a humidified incubator (INCO 105, Memmert GmbH, Schwabach, Germany) at 37 °C with 5% CO2 and 95% humidity. Cells were passaged routinely by trypsinization (twice a week). For the MTT (3-(4,5-simethylthiazol-2,5-diphenyltetrazolinum bromide), Sigma, St. Louis, MO, USA) assay, cells were used after 2–4 passages, when they reached approximately 80% confluence.
(§1) All tested compounds were dissolved in DMSO to obtain stock solutions with a final concentration of 50 mM (3a, 3b, 3e), 40 mM (3f, 3g, 3i, 3j), and 35 mM (3h, 3k). […] In the next step, 10 µL of each stock solution was added to 990 µL of supplemented medium.
The MTT assay was performed in 96-well plates, with a seeding density of 1 × 10^4 cells per well. All cell lines were incubated for 24 h in their respective media: α-MEM for (NHDF cells) and DMEM for (A375 and HT-29) cells. After incubation, the medium was removed and replaced with fresh medium containing the tested compounds at concentrations ranging from 0.004 mM to 0.5 mM. […] Absorbance was measured spectrophotometrically at a wavelength of 570 nm using a BioTek SYNERGY H1 microplate reader (Agilent, Santa Clara, CA, USA).

[1] = target: T1, human serum albumin (HSA) (Homo sapiens, UniProt P02768); test: Fluorescence quenching titration of human serum albumin; assay type: binding; conditions: for ΔG^0 / ΔH^0 / ΔS^0: HSA complex formation; for ΔG^0: one value for 297-308 K; for ΔH^0 / ΔS^0: van't Hoff; for KSV·10^4: PBS pH 7.4
T1 construct: purchased Sigma-Aldrich
T1 sequence (P02768 25-609): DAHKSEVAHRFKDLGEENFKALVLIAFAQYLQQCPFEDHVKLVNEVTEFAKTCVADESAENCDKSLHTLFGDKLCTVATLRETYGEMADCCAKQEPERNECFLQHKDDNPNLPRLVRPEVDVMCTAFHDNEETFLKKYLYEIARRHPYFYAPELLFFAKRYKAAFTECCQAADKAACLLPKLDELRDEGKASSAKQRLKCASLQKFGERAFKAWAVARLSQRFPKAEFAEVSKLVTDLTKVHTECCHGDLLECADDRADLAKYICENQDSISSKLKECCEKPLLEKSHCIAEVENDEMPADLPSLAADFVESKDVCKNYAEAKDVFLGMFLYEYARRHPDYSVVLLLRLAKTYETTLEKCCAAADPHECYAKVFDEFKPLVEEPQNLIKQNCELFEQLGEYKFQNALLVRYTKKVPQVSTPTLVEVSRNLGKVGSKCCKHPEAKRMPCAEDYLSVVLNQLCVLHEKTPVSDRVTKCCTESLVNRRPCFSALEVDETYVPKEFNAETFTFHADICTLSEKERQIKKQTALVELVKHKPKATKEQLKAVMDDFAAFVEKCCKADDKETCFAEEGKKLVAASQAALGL
Description: In the human albumin, the amino acid residue Trp214 in subdomain IIA is of particular significance in structural studies. Subdomain IIA is responsible for binding many drugs and endogenous compounds [37]. To investigate the interactions between HSA and the tested compounds, fluorescence spectroscopy was conducted. […] The Stern–Volmer constant with inner filter correction was applied, based on changes in absorbance and in the fluorescence intensity of excited Trp214 residues located in the protein binding pocket:(1) F0/Fcorr=1+kqτQ=1+KSV[Q] (2) Fcorr=Fobs10^(Aex+Aem)/2 where F0 is maximum fluorescence intensities protein without a quencher, Fcorr is the corrected florescence intensities, kq is the quenching rate constant of the molecules, τ is the average lifetime of the molecule (for biomolecules τ = 10^−8 s), [Q] is the concentration of quencher, Ksv is the Stern-Volmer constant, Fobs is the steady-state fluorescence intensity at the maximum wavelength with the quencher, Aex and Aem are the absorbance at excitation and emission wavelengths, respectively. The quenching rate constants (kq) are higher than 2 × 10^10 dm^3 mol^−1 s^−1; therefore, the quenching mechanism is static and supports complex formation.
The binding parameters were evaluated by a double logarithm regression curve by Equation (3):(3) logF0−F/F=logKb[…] where F0 is the maximum fluorescence intensity of a protein without a quencher, F is the maximum fluorescence intensity of the protein after a quencher addition, Kb is the binding constant, [Q] is the molar concentration of the quencher, and n is the binding stoichiometry.
The compounds studied can be arranged in accordance with the value of Kb, the strength of their interaction with HSA. In this ranking, 3d is the highest ranked, followed by 3c, 3b, and 3g in descending order of compatibility. Then, using Equations (4), and van’t Hoff function (5), the thermodynamic parameters of complex formation were determined and collected in Table 5, and Figure 10:(4) logKb=−ΔH^0/RT+[…] (5) ΔG^0=ΔH^0−TΔS^0=−RTlnKb where R is the gas constant (8.314 J mol^−1 K^−1), T is temperature, Kb is the binding constant, ΔH^0 is enthalpy, ΔS^0 is entropy, and ΔG^0 is free energy change.
To perform the UV-Vis and fluorometric titration measurements, all compounds were dissolved in dimethyl sulfoxide (DMSO) at a concentration of 1⸱10^−3 mol/dm^3. A 0.01 mol/dm^3 phosphate-buffered saline (PBS) solution with a pH of 7.4 (Sigma-Aldrich Chemie GmbH, St. Louis, MO, USA) was used to prepare a 1 × 10^−6 mol/dm^3 solution of human serum albumin (HSA) (Sigma-Aldrich Chemie GmbH, St. Louis, MO, USA). The fluorescence study was performed on a Cary Eclipse 500 spectrophotometer (Agilent, Santa Clara, CA, USA). The fluorometric spectra were recorded in a quartz cuvette with a 10 mm path length over an emission range of 280–400 nm, with an excitation wavelength of 280 nm and a PMT voltage of 560 V. The UV-Vis spectra were recorded on a Jasco V-750 spectrophotometer (Jasco, Tokyo, Japan) with the following parameters: a wavelength range of 190–400 nm, a data interval of 0.1 nm, a scan speed of 400 nm/min, and automatic baseline correction. Quartz cuvettes with an optical path length of 10 mm were used. […] The titrations of the protein solution with the studied compounds were performed in 0.5 molar increments, from 0.0 to 2.0 followed by 1.0 increments up to a final molar ratio of 11.0.

[2] = Solubility on preparing DMSO stock solutions; assay type: physicochemical; conditions: dissolved to 30 mM
Description: as §1

| Compound | selectivity ratio A375:NHDF (A375 (melanoma) cells; at a concentration of 0.5 mM) | ΔG^0 [1] [kcal/mol] | ΔH^0 [1] [kcal/mol] | ΔS^0 [1] [J·mol^−1·K^−1] | kq·10^12 ([1]; T 297 K) | n (binding stoichiometry) ([1]; T 297 K) | KSV·10^4 ([1]; T 297 K) | kq·10^12 ([1]; T 303 K) | n (binding stoichiometry) ([1]; T 303 K) | KSV·10^4 ([1]; T 303 K) | kq·10^12 ([1]; T 308 K) | n (binding stoichiometry) ([1]; T 308 K) | KSV·10^4 ([1]; T 308 K) | solubility [2] | reduction in cancer cell viability / anticancer potential (A375) (A375 (melanoma) cells) |
| --- | --- | --- | --- | --- | --- | --- | --- | --- | --- | --- | --- | --- | --- | --- | --- |
| Cc1cc(C)c(C(=O)NCC(=O)NCc2ccc(Oc3ccccc3)cc2)c(S)n1 [Compound 3b, 4,6-dimethyl-N-{2-[(4-phenoxybenzyl)amino]-2-oxoethyl}-2-sulfanylpyridine-3-carboxamide] | 0.56 | -3.176 | -96.119 | −1282.70 | 1.21 10^12 dm^3·mol^−1·s^−1 | 0.89 | 1.21 10^4 dm^3·mol^−1 | 1.06 10^12 dm^3·mol^−1·s^−1 | 0.60 | 1.06 10^4 dm^3·mol^−1 | 0.86 10^12 dm^3·mol^−1·s^−1 | 0.44 | 0.86 10^4 dm^3·mol^−1 | – | – |
| Cc1cc(C)c(C(=O)NCC(=O)NCc2ccc(Cl)cc2)c(S)n1 [Compound 3c, N-{2-[(4-chlorobenzyl)amino]-2-oxoethyl}-4,6-dimethyl-2-sulfanylpyridine-3-carboxamide] | – | -4.319 | -45.696 | −571.09 | 2.69 10^12 dm^3·mol^−1·s^−1 | 0.84 | 2.69 10^4 dm^3·mol^−1 | 2.34 10^12 dm^3·mol^−1·s^−1 | 0.74 | 2.34 10^4 dm^3·mol^−1 | 2.07 10^12 dm^3·mol^−1·s^−1 | 0.65 | 2.07 10^4 dm^3·mol^−1 | low solubility | strongest reduction in cancer cell viability |
| Cc1cc(C)c(C(=O)NCC(=O)NCc2ccccc2Cl)c(S)n1 [Compound 3d, N-{2-[(2-chlorobenzyl)amino]-2-oxoethyl}-4,6-dimethyl-2-sulfanylpyridine-3-carboxamide] | – | -4.156 | -45.471 | −570.21 | 2.51 10^12 dm^3·mol^−1·s^−1 | 0.82 | 2.51 10^4 dm^3·mol^−1 | 2.13 10^12 dm^3·mol^−1·s^−1 | 0.73 | 2.13 10^4 dm^3·mol^−1 | 1.88 10^12 dm^3·mol^−1·s^−1 | 0.63 | 1.88 10^4 dm^3·mol^−1 | low solubility | strongest reduction in cancer cell viability |
| Cc1cc(C)c(C(=O)NCC(=O)NCc2ccccc2)c(S)n1 [Compound 3g, 4,6-dimethyl-N-[2-(benzylamino)-2-oxoethyl]-2-sulfanylpyridine-3-carboxamide] | – | -2.12 | -44.077 | −579.14 | 0.87 10^12 dm^3·mol^−1·s^−1 | 0.60 | 0.87 10^4 dm^3·mol^−1 | 0.72 10^12 dm^3·mol^−1·s^−1 | 0.54 | 0.72 10^4 dm^3·mol^−1 | 0.63 10^12 dm^3·mol^−1·s^−1 | 0.42 | 0.63 10^4 dm^3·mol^−1 | – | only moderate anticancer potential |
